Read-outs that look alike come from different tables or passages of the source.

The target of assay [1] is T1, hTAS2R39 (Homo sapiens, UniProt P59534).
T1 construct: first 45 amino acids of rat somatostatin receptor type 3 (sst3 membrane-targeting tag) (N); expressed in transfected cells; host or cells: HEK293 T-Rex Flp-In cells stably expressing Gα16-gust44; receptor in pcDNA5/FRT, induced with doxycycline
T1 sequence (P59534 1-338): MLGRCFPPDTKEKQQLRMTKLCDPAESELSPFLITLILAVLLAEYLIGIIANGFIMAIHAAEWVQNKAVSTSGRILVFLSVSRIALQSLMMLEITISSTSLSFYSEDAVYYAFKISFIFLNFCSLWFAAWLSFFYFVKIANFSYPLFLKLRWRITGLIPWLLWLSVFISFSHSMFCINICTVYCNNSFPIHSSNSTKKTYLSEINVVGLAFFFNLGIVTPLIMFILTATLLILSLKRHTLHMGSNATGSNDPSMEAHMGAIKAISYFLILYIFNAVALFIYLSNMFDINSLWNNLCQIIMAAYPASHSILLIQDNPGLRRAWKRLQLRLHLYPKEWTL
As to the kind of experiment: Calcium assay of hTAS2R39 activation/inhibition in HEK293 T-Rex Flp-In cells. It counts as cell-based.

The target of assay [2] is T2, hTAS2R16 (Homo sapiens, UniProt Q9NYV7).
T2 construct: expressed in transfected cells; host or cells: induced versus non-induced cells
T2 sequence (Q9NYV7 1-291): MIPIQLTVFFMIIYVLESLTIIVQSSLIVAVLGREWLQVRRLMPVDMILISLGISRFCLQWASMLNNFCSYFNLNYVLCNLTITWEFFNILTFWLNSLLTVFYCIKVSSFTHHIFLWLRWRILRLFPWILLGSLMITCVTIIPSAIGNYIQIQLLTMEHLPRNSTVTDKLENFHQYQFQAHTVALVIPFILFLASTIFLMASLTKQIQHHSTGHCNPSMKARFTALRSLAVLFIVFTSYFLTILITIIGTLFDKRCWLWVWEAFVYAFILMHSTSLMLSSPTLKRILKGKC
The assay is described as follows: Calcium assay of hTAS2R16 activation/inhibition (salicin as agonist). The format is cell-based. Particulars: for inhibition of salicin response on hTAS2R16: 10 mM salicin, simultaneous and stepwise addition. How it is done:
Cells were seeded into poly-L-lysine-coated (Sigma-Aldrich) 96-well plates (black wall, clear bottom, Greiner bio-one, Frickenhausen, Germany) at a density of 7*10^3 cells in 100 μL/well and cultured for 24 h. Transcription of the receptors was induced by adding 0.25 μg/mL doxycycline (Sigma-Aldrich). Cells were induced for 24 h and then loaded with the calcium-sensitive fluorescent dye Fluo-4-AM (2.5 μM, Invitrogen), which was dissolved in Tyrode's buffer containing 5% (v/v) tetracycline-free FBS (Lonza). One hour after loading, cells were washed with Tyrode's buffer and taken up in Tyrode's buffer. Stock solutions of test compounds were prepared in DMSO and diluted to the appropriate concentration in Tyrode's buffer, not exceeding a DMSO concentration of 1% (v/v).
Receptor activation or inhibition was measured via intracellular Ca^2+ release in a FlexStation II 384 or FlexStation III (Molecular Devices Corporation, Sunnyvale, CA, USA) by measuring fluorescence (excitation 485 nm/emission 520 nm) for either 90 s or 240 s at 37°C. Two methods of compound administration were applied: simultaneous and stepwise addition of potential antagonist and agonist. The first 17 s before compound addition were used for baseline determination. For the simultaneous method, agonist and potential antagonist were pre-mixed, administered after 17 s, and fluorescence was measured for in total 90 s. For the stepwise method, after 17 s, the potential antagonist was added, fluorescence was measured until 120 s, and after 120 s the agonist was added and measured for another 120 s, in total 240 s. […] Each experiment was performed at least in duplicate in separate experiments (as indicated for each figure).
Screening for hTAS2R39 inhibition by flavanones was performed with simultaneous application of agonist (200 μM ECG) and putative antagonist (250 μM flavanone). Inhibition was indicated when [drawing 1] . In case of indicated inhibition, flavanones were applied at different concentrations, in order to test for dose-dependent inhibition, at the EC80 concentration of the agonist. Another agonist of hTAS2R39, denatonium benzoate, was used in inhibition experiments at 1.7 mM (EC80). hTAS2R14 inhibition was tested with 640 μM ECG or 70 μM genistein as agonists, representing their respective EC80 concentrations. To investigate the specificity of flavanones for inhibition of hTAS2R39 and hTAS2R14, another bitter taste receptor, hTAS2R16 (not known to be activated by flavonoids), was used in inhibition experiments ( File S3 ) towards its agonist salicin.
SUPPORTING INFORMATION to the article “6-Methoxyflavanones as Bitter Taste Receptor Blockers for hTAS2R39” by Roland, WSU; Gouka, RJ; Gruppen, H; Driesse, M; van Buren, L; Smit, G; Vincken, J-P File S3 Investigation of identified inhibitors on hTAS2R16.
To investigate whether the hTAS2R39 inhibitors 6,3’-dimethoxyflavanone (3), 4’- fluoro-6-methoxyflavanone (6), and 6-methoxyflavanone (11) were able to inhibit a bitter receptor not known for flavonoid activation, hTAS2R16 was selected for inhibition experiments. Measuring dose-response curves of the hTAS2R16 agonist […]
Figure S3. Inhibition of response of 10 mM salicin (---) on hTAS2R16 (induced (●), non-induced (○)) by 4’-fluoro-6-methoxyflavanone (6) after simultaneous addition (A) and stepwise addition (B), by 6,3’-dimethoxyflavanone (3) after simultaneous addition (C) and stepwise addition (D), and by 6-methoxyflavanone (11) after simultaneous addition (E) and stepwise addition (F). […]

With `CCCN(CCC)S(=O)(=O)c1ccc(C(=O)O)cc1` [probenecid, p-(dipropylsulfamyl)benzoic acid, reference compound], the “inhibition of hTAS2R39 by probenecid in the buffer” value in assay [1] (0.5 mM probenecid in Tyrode's buffer, agonist ECG) is given as “did not lead to inhibition”. The “inhibitory effect of probenecid on hTAS2R16 assay” value in assay [2] (0.5 mM probenecid in Tyrode's buffer and dye loading buffer, agonist salicin) is listed as “no inhibitory effect”.
With `COc1ccc2c(c1)C(=O)CC(c1ccccc1)O2` (centres unmarked) [Compound 11, 6-Methoxyflavanone], the “inhibition of salicin response on hTAS2R16” value in assay [2] was “no inhibition”.
A word on the IC50: it is the midpoint of a concentration-inhibition curve. With `COc1ccc2c(c1)C(=O)CC(c1ccc(F)cc1)O2` (centres unmarked) [Compound 6, 4′-Fluoro-6-methoxyflavanone], the “reversibility of inhibition (washout experiment)” value in assay [1] (200 μM ECG, 100 μM antagonist, washed with Tyrode's buffer, stimulated again) is listed as “reversible”. For the same molecule, the maximal signal reduction in assay [1] (200 μM ECG, simultaneous addition, reached at 63 μM) is given as 65%; in assay [1] (1.7 mM denatonium benzoate, simultaneous addition, up to 63 μM), 58%. The receptor blocking stood at 100% in assay [1] (200 μM ECG, stepwise addition (applied prior to ECG)) and 100% in assay [1] (1.7 mM denatonium benzoate, stepwise addition). Further, the “mechanism of antagonism on hTAS2R39” value in assay [1] (ECG dose-response curves at various antagonist concentrations and wash-out experiments) was “reversible insurmountable antagonism”. For the same molecule, the “Threshold, Simultaneous” value in assay [1] (inhibition of hTAS2R39 response to 200 μM ECG, simultaneous addition, n.b. = no blocking) amounted to 8 µM; in assay [1] (inhibition of hTAS2R39 response to 1.7 mM denatonium benzoate, simultaneous addition, n.b. = no blocking), 8 µM. For the same molecule, the IC50 in assay [1] (inhibition of hTAS2R39 response to 200 μM ECG, simultaneous addition, n.b. = no blocking, read-out: IC50, Simultaneous) amounted to 32 ± 7 µM; in assay [1] (inhibition of hTAS2R39 response to 200 μM ECG, stepwise addition, read-out: IC50, Stepwise), 102 ± 9 µM; in assay [1] (inhibition of hTAS2R39 response to 1.7 mM denatonium benzoate, simultaneous addition, n.b. = no blocking, read-out: IC50, Simultaneous), 22 ± 12 µM; in assay [1] (inhibition of hTAS2R39 response to 1.7 mM denatonium benzoate, stepwise addition, read-out: IC50, Stepwise), 55 ± 3 µM. Further, the “Threshold, Stepwise” value was 63 µM in assay [1] (inhibition of hTAS2R39 response to 200 μM ECG, stepwise addition) and 32 µM in assay [1] (inhibition of hTAS2R39 response to 1.7 mM denatonium benzoate, stepwise addition). In addition, the “significance of the inhibitory effect at screening concentrations” value in assay [1] (simultaneous application of 200 μM ECG and 250 μM flavanone) is listed as “significant”. Further, the “reduction of ECG response on hTAS2R39 (screening for inhibition)” value in assay [1] (simultaneous application of 200 μM ECG and 250 μM flavanone, inhibition when response ratio <1) is “showed reduction of ECG responses”. Further, the “inhibition of salicin response on hTAS2R16” value in assay [2] is “no inhibition”.
